Experimental data reported in PubChem BioAssay (NCI).
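Values below derive from 48-hour exposures of cells grown in 96-well plates, with endpoints linearly interpolated between the two concentrations bracketing the appropriate inhibition level. GI50 = concentration required for 50% inhibition of growth. TGI: total growth inhibition.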

Tests used:
Assay in all cases: NCI tumour cell line growth inhibition, 48 h
786-0 renal = tested on: 786-0 renal
A498 renal = tested on: A498 renal
A549 NSCLC = tested on: A549 NSCLC
ACHN renal = tested on: ACHN renal
BT-549 breast = tested on: BT-549 breast
CAKI-1 renal = tested on: CAKI-1 renal
CCRF-CEM leukemia = tested on: CCRF-CEM leukemia
COLO 205 colon = tested on: COLO 205 colon
DU-145 prostate = tested on: DU-145 prostate
HCC-2998 colon = tested on: HCC-2998 colon
HCT-116 colon = tested on: HCT-116 colon
HCT-15 colon = tested on: HCT-15 colon
HL-60(TB) leukemia = tested on: HL-60(TB) leukemia
HOP-62 NSCLC = tested on: HOP-62 NSCLC
HOP-92 NSCLC = tested on: HOP-92 NSCLC
HS 578T breast = tested on: HS 578T breast
HT29 colon = tested on: HT29 colon
IGROV1 ovarian = tested on: IGROV1 ovarian
K-562 leukemia = tested on: K-562 leukemia
KM12 colon = tested on: KM12 colon
LOX IMVI melanoma = tested on: LOX IMVI melanoma
M14 melanoma = tested on: M14 melanoma
MALME-3M melanoma = tested on: MALME-3M melanoma
MCF7 breast = tested on: MCF7 breast
MDA-MB-231 breast = tested on: MDA-MB-231 breast
MDA-MB-435 = tested on: MDA-MB-435
MOLT-4 leukemia = tested on: MOLT-4 leukemia
NCI-H226 lung = tested on: NCI-H226 lung
NCI-H23 lung = tested on: NCI-H23 lung
NCI-H460 lung = tested on: NCI-H460 lung
NCI-H522 lung = tested on: NCI-H522 lung
NCI/ADR-RES ovarian = tested on: NCI/ADR-RES ovarian
OVCAR-3 ovarian = tested on: OVCAR-3 ovarian
OVCAR-4 ovarian = tested on: OVCAR-4 ovarian
OVCAR-5 ovarian = tested on: OVCAR-5 ovarian
OVCAR-8 ovarian = tested on: OVCAR-8 ovarian
PC-3 prostate = tested on: PC-3 prostate
RPMI-8226 leukemia = tested on: RPMI-8226 leukemia
RXF 393 renal = tested on: RXF 393 renal
SF-268 CNS = tested on: SF-268 CNS
SF-295 CNS = tested on: SF-295 CNS
SF-539 CNS = tested on: SF-539 CNS
SK-MEL-2 melanoma = tested on: SK-MEL-2 melanoma
SK-MEL-28 melanoma = tested on: SK-MEL-28 melanoma
SK-MEL-5 melanoma = tested on: SK-MEL-5 melanoma
SK-OV-3 ovarian = tested on: SK-OV-3 ovarian
SN12C renal = tested on: SN12C renal
SNB-19 CNS = tested on: SNB-19 CNS
SNB-75 CNS = tested on: SNB-75 CNS
SR leukemia = tested on: SR leukemia
SW-620 colon = tested on: SW-620 colon
T-47D breast = tested on: T-47D breast
TK-10 renal = tested on: TK-10 renal
U251 CNS = tested on: U251 CNS
UACC-257 melanoma = tested on: UACC-257 melanoma
UACC-62 melanoma = tested on: UACC-62 melanoma
UO-31 renal = tested on: UO-31 renal
EKVX NSCLC = tested on: EKVX NSCLC

## Cn1cc(C2=C(c3cn(CCSC(=N)N)c4ccccc34)C(=O)NC2=O)c2ccccc21
786-0 renal
  GI50: 4.29 µM
  TGI: 10.7 µM
A498 renal
  GI50: 4.22 µM
  TGI: 8.95 µM
A549 NSCLC
  GI50: 3.94 µM
  TGI: 8.18 µM
ACHN renal
  GI50: 3.81 µM
  TGI: 7.74 µM
BT-549 breast
  GI50: 4.11 µM
  TGI: 8.31 µM
CAKI-1 renal
  GI50: 4.47 µM
  TGI: 9.25 µM
CCRF-CEM leukemia
  GI50: 1.38 µM
  TGI: 12.7 µM
COLO 205 colon
  GI50: 1.13 µM
  TGI: 4.52 µM
DU-145 prostate
  GI50: 3.94 µM
  TGI: 7.81 µM
HCC-2998 colon
  GI50: 4.13 µM
  TGI: 8.07 µM
HCT-116 colon
  GI50: 1.45 µM
  TGI: 5.77 µM
HCT-15 colon
  GI50: 5.21 µM
  TGI: 11.9 µM
HL-60(TB) leukemia
  GI50: 4.65 µM
  TGI: 10 µM
HOP-62 NSCLC
  GI50: 3.81 µM
  TGI: 7.98 µM
HOP-92 NSCLC
  GI50: 2.38 µM
  TGI: 8.78 µM
HS 578T breast
  GI50: 3.24 µM
  TGI: 10.4 µM
HT29 colon
  GI50: 1.31 µM
  TGI: 5.28 µM
IGROV1 ovarian
  GI50: 4.92 µM
  TGI: 9.46 µM
K-562 leukemia
  GI50: 1.87 µM
  TGI: 6.1 µM
KM12 colon
  GI50: 3.13 µM
  TGI: 6.57 µM
LOX IMVI melanoma
  GI50: 3.02 µM
  TGI: 6.52 µM
M14 melanoma
  GI50: 3.74 µM
  TGI: 8.01 µM
MALME-3M melanoma
  GI50: 4.08 µM
  TGI: 7.83 µM
MCF7 breast
  GI50: 1.19 µM
  TGI: 4.55 µM
MDA-MB-231 breast
  GI50: 4.12 µM
  TGI: 8.29 µM
MDA-MB-435
  GI50: 1.73 µM
  TGI: 5.25 µM
MOLT-4 leukemia
  GI50: 1.98 µM
  TGI: 7.95 µM
NCI-H226 lung
  GI50: 4.49 µM
  TGI: 12.2 µM
NCI-H23 lung
  GI50: 3.53 µM
  TGI: 7.92 µM
NCI-H460 lung
  GI50: 3.84 µM
  TGI: 7.69 µM
NCI-H522 lung
  GI50: 1.88 µM
  TGI: 5.64 µM
NCI/ADR-RES ovarian
  GI50: 13.2 µM
  TGI: 25 µM
OVCAR-3 ovarian
  GI50: 3.37 µM
  TGI: 6.74 µM
OVCAR-4 ovarian
  GI50: 3.88 µM
  TGI: 8.96 µM
OVCAR-5 ovarian
  GI50: 6.25 µM
  TGI: 14.1 µM
OVCAR-8 ovarian
  GI50: 3.95 µM
  TGI: 8.91 µM
PC-3 prostate
  GI50: 3.51 µM
  TGI: 8.4 µM
RPMI-8226 leukemia
  GI50: 4.18 µM
  TGI: 10.1 µM
RXF 393 renal
  GI50: 3.56 µM
  TGI: 8.23 µM
SF-268 CNS
  GI50: 3.91 µM
  TGI: 8.18 µM
SF-295 CNS
  GI50: 3.47 µM
  TGI: 7.39 µM
SF-539 CNS
  GI50: 3.63 µM
  TGI: 7.62 µM
SK-MEL-2 melanoma
  GI50: 2.79 µM
  TGI: 6.22 µM
SK-MEL-28 melanoma
  GI50: 3.53 µM
  TGI: 7.06 µM
SK-MEL-5 melanoma
  GI50: 3.83 µM
  TGI: 7.43 µM
SK-OV-3 ovarian
  GI50: 2.79 µM
  TGI: 6.56 µM
SN12C renal
  GI50: 2.8 µM
  TGI: 6.37 µM
SNB-19 CNS
  GI50: 4.74 µM
  TGI: 10.3 µM
SNB-75 CNS
  GI50: 1.49 µM
  TGI: 5.84 µM
SR leukemia
  GI50: 1.23 µM
  TGI: 6.87 µM
SW-620 colon
  GI50: 3.25 µM
  TGI: 7.05 µM
T-47D breast
  GI50: 3.24 µM
  TGI: 8.25 µM
TK-10 renal
  GI50: 3.15 µM
  TGI: 6.54 µM
U251 CNS
  GI50: 2.91 µM
  TGI: 6.32 µM
UACC-257 melanoma
  GI50: 3.85 µM
  TGI: 7.79 µM
UACC-62 melanoma
  GI50: 3.94 µM
  TGI: 7.43 µM
UO-31 renal
  GI50: 3.63 µM
  TGI: 7.71 µM

## C[N+](C)=C/C=C(\Cl)c1ccc2ccccc2c1
786-0 renal
  TGI: 28.9 µM
A498 renal
  TGI: > 100 µM
A549 NSCLC
  TGI: > 100 µM
ACHN renal
  TGI: 28.5 µM
BT-549 breast
  TGI: 38.6 µM
CAKI-1 renal
  TGI: 25 µM
COLO 205 colon
  TGI: 41.4 µM
DU-145 prostate
  TGI: 28.8 µM
EKVX NSCLC
  TGI: 60.1 µM
HCC-2998 colon
  TGI: 20.7 µM
HCT-116 colon
  TGI: 9.79 µM
HCT-15 colon
  TGI: 11.2 µM
HL-60(TB) leukemia
  TGI: 38.5 µM
HOP-62 NSCLC
  TGI: 35 µM
HOP-92 NSCLC
  TGI: 53.3 µM
HS 578T breast
  TGI: > 100 µM
HT29 colon
  TGI: 28.4 µM
IGROV1 ovarian
  TGI: 34.9 µM
K-562 leukemia
  TGI: > 33.2 µM
KM12 colon
  TGI: 32.3 µM
LOX IMVI melanoma
  TGI: 12.8 µM
M14 melanoma
  TGI: 23.2 µM
MALME-3M melanoma
  TGI: 27.8 µM
MCF7 breast
  TGI: > 73.4 µM
MDA-MB-231 breast
  TGI: 28.8 µM
MDA-MB-435
  TGI: 36 µM
MOLT-4 leukemia
  TGI: 3.67 µM
NCI-H226 lung
  TGI: 41.4 µM
NCI-H23 lung
  TGI: 17.1 µM
NCI-H460 lung
  TGI: 57.6 µM
NCI-H522 lung
  TGI: 67.8 µM
NCI/ADR-RES ovarian
  TGI: 17.3 µM
OVCAR-3 ovarian
  TGI: 13.4 µM
OVCAR-4 ovarian
  TGI: 11.6 µM
OVCAR-5 ovarian
  TGI: 39.8 µM
OVCAR-8 ovarian
  TGI: 31.6 µM
PC-3 prostate
  TGI: 43.5 µM
RPMI-8226 leukemia
  TGI: 14.6 µM
RXF 393 renal
  TGI: 47.9 µM
SF-268 CNS
  TGI: 67 µM
SF-295 CNS
  TGI: 33.8 µM
SF-539 CNS
  TGI: 58.7 µM
SK-MEL-2 melanoma
  TGI: 59.9 µM
SK-MEL-28 melanoma
  TGI: 11.1 µM
SK-MEL-5 melanoma
  TGI: 36.5 µM
SK-OV-3 ovarian
  TGI: 38.2 µM
SN12C renal
  TGI: 50 µM
SNB-19 CNS
  TGI: 38.5 µM
SNB-75 CNS
  TGI: > 58.2 µM
SR leukemia
  TGI: 4.26 µM
SW-620 colon
  TGI: 29.2 µM
T-47D breast
  TGI: 48.3 µM
TK-10 renal
  TGI: 33.4 µM
U251 CNS
  TGI: 27.8 µM
UACC-257 melanoma
  TGI: 36.8 µM
UACC-62 melanoma
  TGI: 29.9 µM
UO-31 renal
  TGI: 32.6 µM
